Assays:
MET = target: T1, MET (Homo sapiens, UniProt P08581); test: MET Mobility Shift Assay; conditions: biochemical assay IC50; 100 μM ATP, 60 minute kinase reaction
T1 construct: purchased Carna Biosciences 08-151
Protocol: (§1) Small molecule inhibition of MET kinase activity was evaluated using a fluorescence-based microfluidic mobility shift assay. MET catalyzes the production of ADP from ATP during phosphoryl transfer to the substrate peptide, FLPeptide30 (5-FAM-KKKKEEIYFFF-CONH2) (Perkin Elmer, 760430). MET enzme (Carna Biosciences, 08-151) at 0.625 nM was prepared with 10 mM MgCl2 and 1.5 μM substrate peptide in a buffer containing 50 mM HEPES, 1 mM EGTA, 0.01% Brij-35, 0.05% BSA, and 2 mM DTT and pre-incubated at room temperature for 30 min prior to the start of the reaction. 100 μM ATP was added to start the reaction. The mobility shift assay electrophoretically separates the fluorescently labeled peptides (substrate and phosphorylated product) following the 60 minute kinase reaction. The reaction was terminated by addition of 0.5 M EDTA. Both substrate and product were measured and the ratio of these values used to generate % conversion of substrate to product by the LabChip EZ reader (Perkin Elmer). ICso values were calculated using the inhibition of conversion ratio using Dotmatics Knowledge Solutions Studies curve fitting environment (Dotmatics, Bishops Stortford, UK, CM23) and are presented in Table 2.

[1] = target: T2, Ba/F3-TPR-MET-D1228N cells (Homo sapiens, UniProt P08581, D1228N, cells depend on it); test: CellTiter-Glo Cell Viability Assay, Ba/F3-TPR-MET-D1228N; assay type: cell-based; conditions: 72 hours
T2 construct: fused on or other part: P12270 (Nucleoprotein TPR)
Protocol: (§2) Ba/F3-TPR-MET and Ba/F3-TPR-MET-D1228N cells were seeded at 3000 cells per well in a 96 well plate in 90 μL growth media and allowed to incubate overnight at 37° C. with 5% CO2. The following day, compounds were serially diluted from a 10 mM top dose for a 9-point 3-fold dilution curve in DMSO. Following a 100-fold dilution in growth media, a further 10-fold dilution was made into the cell plate for a final volume of 100 μL and 0.1% DMSO. Compounds and cells were incubated together for 72 hours at 37° C. with 5% CO2. The CellTiter-Glo® 2.0 Assay determines the number of viable cells in culture by quantifying ATP, which indicates the presence of metabolically active cells. Luminescence readout is directly proportional to the number of viable cells in culture. CellTiter-Glo reagent (Promega, G9243) and cell plates were allowed to equilibrate to room temperature for at least 15 min, then 100 μL of CellTiter-Glo was added to each well for a 1:1 ratio of reagent to media. Samples were placed on a shaker for 2 min prior to a 30 min incubation at room temperature protected from light. Luminescence was read on a Perkin Elmer Envision plate reader 2105 and used to calculate ICso values within the Dotmatics Knowledge Solutions Studies curve fitting environment (Dotmatics, Bishops Stortford, UK, CM23) and are presented in Table 2.

MET D1228N = target: T3, MET D1228N (Homo sapiens, UniProt P08581, D1228N); test: MET D1228N Mobility Shift Assay; conditions: biochemical assay IC50; 100 μM ATP, 60 minute kinase reaction
T3 construct: purchased Signalchem M52-12IG
Protocol: as §1, with “MET D1228N” for “MET”, “a fluorescence -based” for “a fluorescence-based”, “FLPeptide30 (5-FAM-KKKKEEIYFFF -CONH2)” for “FLPeptide30 (5-FAM-KKKKEEIYFFF-CONH2)”, “MET D1228N enzyme (Signalchem, M52-12IG)” for “MET enzme (Carna Biosciences, 08-151)”, “at 0.313” for “at 0.625”

Ba/F3-TPR-MET cells = target: T4, Ba/F3-TPR-MET cells (Homo sapiens, UniProt P08581); test: CellTiter-Glo Cell Viability Assay, Ba/F3-TPR-MET; assay type: cell-based; conditions: 72 hours
T4 construct: fused on or other part: P12270 (Nucleoprotein TPR)
Protocol: as §2

T2 sequence (P08581 whole entry D1228N, the tested form may be a part): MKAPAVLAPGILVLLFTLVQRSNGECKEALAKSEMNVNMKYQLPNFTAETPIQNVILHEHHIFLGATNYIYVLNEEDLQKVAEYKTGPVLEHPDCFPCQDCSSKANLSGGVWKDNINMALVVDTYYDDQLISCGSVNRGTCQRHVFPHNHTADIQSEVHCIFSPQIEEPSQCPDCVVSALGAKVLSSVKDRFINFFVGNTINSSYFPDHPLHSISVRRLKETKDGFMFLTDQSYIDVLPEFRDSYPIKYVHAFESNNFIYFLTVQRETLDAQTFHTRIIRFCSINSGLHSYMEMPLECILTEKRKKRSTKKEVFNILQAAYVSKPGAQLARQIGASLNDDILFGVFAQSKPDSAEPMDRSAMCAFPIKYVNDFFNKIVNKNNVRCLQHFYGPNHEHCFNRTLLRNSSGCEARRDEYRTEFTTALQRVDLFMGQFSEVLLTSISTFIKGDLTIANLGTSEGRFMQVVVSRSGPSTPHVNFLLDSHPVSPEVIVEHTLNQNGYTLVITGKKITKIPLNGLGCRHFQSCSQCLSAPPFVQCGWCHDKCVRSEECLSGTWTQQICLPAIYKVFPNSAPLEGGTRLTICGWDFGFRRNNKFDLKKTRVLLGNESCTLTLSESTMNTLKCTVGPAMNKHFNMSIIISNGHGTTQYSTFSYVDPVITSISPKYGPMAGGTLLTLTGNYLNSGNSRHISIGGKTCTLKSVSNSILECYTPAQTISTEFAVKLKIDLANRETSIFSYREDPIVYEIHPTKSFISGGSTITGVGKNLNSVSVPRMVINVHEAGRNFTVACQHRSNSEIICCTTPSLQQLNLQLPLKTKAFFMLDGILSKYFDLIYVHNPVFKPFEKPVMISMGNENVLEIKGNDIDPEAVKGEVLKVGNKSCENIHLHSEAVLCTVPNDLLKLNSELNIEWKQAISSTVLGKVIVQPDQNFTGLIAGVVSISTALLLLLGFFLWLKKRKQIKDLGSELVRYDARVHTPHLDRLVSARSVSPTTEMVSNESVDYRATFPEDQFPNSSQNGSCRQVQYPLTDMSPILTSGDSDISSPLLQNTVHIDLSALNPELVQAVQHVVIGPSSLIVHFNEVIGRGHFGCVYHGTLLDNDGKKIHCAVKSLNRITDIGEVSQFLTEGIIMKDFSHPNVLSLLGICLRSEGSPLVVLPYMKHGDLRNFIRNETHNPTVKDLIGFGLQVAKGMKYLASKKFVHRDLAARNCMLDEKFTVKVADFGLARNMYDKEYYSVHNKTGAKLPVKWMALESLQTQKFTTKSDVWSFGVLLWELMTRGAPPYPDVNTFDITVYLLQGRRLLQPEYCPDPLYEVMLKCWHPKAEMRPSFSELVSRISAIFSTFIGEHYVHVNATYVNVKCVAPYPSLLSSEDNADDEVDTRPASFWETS
T4 sequence (P08581 whole entry, change not shown, the tested form may be a part): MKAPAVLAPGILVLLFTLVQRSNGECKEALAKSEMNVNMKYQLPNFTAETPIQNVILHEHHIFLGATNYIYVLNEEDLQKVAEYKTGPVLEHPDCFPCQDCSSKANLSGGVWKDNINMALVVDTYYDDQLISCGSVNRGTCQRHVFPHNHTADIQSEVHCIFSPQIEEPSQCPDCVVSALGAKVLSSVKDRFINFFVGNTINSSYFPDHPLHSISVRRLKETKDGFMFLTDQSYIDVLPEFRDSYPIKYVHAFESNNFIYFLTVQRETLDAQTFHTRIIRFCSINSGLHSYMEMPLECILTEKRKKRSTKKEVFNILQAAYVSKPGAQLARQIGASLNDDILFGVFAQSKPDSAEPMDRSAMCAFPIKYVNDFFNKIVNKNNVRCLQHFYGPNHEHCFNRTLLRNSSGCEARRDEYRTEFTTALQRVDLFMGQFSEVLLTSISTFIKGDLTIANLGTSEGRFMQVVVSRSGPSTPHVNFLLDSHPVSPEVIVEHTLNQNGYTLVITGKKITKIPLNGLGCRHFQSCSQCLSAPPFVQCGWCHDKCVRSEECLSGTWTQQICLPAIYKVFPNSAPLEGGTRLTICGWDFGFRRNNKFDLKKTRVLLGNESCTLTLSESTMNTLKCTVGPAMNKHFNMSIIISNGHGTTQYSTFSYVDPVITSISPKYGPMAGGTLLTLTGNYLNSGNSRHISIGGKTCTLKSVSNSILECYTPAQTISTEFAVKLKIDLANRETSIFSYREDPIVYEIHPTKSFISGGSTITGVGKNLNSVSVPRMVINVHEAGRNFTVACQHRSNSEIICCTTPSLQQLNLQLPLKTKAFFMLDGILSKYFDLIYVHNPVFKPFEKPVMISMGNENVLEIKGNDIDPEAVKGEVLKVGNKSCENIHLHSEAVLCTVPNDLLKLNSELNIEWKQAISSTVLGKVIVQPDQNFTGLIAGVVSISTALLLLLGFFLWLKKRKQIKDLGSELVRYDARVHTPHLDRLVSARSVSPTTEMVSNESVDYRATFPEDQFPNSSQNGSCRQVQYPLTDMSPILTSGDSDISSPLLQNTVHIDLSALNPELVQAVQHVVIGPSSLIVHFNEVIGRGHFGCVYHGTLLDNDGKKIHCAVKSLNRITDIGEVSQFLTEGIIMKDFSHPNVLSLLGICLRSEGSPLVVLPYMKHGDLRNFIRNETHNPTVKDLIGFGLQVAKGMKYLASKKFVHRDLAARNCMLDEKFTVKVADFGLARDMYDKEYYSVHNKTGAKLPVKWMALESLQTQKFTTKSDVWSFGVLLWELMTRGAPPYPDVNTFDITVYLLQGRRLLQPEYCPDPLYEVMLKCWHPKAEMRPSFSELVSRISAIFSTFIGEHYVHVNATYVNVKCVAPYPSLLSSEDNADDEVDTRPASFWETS
T3 sequence (P08581 25-1390 D1228N): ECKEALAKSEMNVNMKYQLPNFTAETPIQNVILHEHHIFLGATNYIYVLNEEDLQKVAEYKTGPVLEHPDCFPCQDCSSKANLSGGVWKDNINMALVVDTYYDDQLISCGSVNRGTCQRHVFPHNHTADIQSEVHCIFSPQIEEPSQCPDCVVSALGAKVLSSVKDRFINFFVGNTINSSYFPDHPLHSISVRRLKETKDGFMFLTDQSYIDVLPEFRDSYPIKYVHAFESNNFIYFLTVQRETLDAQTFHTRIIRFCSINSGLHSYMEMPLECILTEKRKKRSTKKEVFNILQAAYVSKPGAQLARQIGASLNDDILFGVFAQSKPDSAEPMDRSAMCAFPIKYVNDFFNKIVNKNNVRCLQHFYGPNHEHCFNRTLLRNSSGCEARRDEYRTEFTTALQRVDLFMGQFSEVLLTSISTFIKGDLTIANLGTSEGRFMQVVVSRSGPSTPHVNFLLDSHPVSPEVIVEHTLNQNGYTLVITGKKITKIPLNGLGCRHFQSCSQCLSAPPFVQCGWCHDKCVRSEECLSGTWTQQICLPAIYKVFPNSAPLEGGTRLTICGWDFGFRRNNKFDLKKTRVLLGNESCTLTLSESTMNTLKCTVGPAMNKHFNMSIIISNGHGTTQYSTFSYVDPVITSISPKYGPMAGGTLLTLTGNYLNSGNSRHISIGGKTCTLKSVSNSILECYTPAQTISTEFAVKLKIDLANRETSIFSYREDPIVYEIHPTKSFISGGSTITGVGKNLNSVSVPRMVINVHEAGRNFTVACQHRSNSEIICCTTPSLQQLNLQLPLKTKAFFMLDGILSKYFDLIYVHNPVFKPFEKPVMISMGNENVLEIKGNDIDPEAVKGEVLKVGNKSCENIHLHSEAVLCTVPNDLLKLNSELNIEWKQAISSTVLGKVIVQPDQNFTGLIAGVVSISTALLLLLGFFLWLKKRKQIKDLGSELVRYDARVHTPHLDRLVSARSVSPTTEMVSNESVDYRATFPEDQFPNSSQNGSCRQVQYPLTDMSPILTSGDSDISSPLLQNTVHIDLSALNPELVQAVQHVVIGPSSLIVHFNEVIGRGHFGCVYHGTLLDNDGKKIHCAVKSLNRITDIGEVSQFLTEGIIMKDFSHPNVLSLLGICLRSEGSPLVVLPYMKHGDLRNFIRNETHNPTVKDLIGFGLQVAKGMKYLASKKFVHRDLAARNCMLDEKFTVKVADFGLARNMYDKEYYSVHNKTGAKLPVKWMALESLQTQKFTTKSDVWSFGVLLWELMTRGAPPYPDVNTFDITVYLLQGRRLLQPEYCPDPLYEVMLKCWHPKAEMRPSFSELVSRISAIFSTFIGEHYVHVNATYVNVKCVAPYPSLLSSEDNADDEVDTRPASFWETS

IC50 (MET) [nM] | IC50 (MET D1228N) [nM] | SMILES | EC50 [1] [nM] | EC50 (Ba/F3-TPR-MET cells) [nM]
≤ 100 | ≤ 100 | COc1cc2c(Oc3c(F)cc(NC(=O)c4c(OCC(F)F)ccnc4F)cc3F)ccnc2cc1OCCO [Example 141, N-(3,5-difluoro-4-((7-(2-hydroxyethoxy)-6-methoxyquinolin-4-yl)oxy)phenyl)-4-(2,2-difluoroethoxy)-2-fluoropyridine-3-carboxamide] | ≤ 100 | ≤ 100
≤ 100 | ≤ 100 | COc1cc2nccc(Oc3c(F)cc(NC(=O)c4c(OC5CC5)ccnc4F)cc3F)c2nc1OC [Example 144, 4-cyclopropoxy-N-(4-((6,7-dimethoxy-1,5-naphthyridin-4-yl)oxy)-3,5-difluorophenyl)-2-fluoropyridine-3-carboxamide] | ≤ 100 | ≤ 100
≤ 100 | ≤ 100 | CCc1ccncc1C(=O)Nc1cc(F)c(Oc2ccnc3cc(OCCNC)c(OC)cc23)c(F)c1 [Example 49, N-(3,5-difluoro-4-((6-methoxy-7-(2-(methylamino)ethoxy)quinolin-4-yl)oxy)phenyl)-4-ethylpyridine-3-carboxamide] | 100 to 1000 | 100 to 1000
≤ 100 | ≤ 100 | CNCCOc1cc2nccc(Oc3c(F)cc(NC(=O)c4cnc(NCCOC)cc4OC)cc3F)c2cc1OC [Example 46, N-(3,5-difluoro-4-((6-methoxy-7-(2-(methylamino)ethoxy)quinolin-4-yl)oxy)phenyl)-4-methoxy-6-((2-methoxyethyl)amino)pyridine-3-carboxamide] | ≤ 100 | ≤ 100
≤ 100 | ≤ 100 | CNCCOc1cc2nccc(Oc3c(F)cc(NC(=O)c4cncnc4OC4CC4)cc3F)c2cc1OC [Example 76, 4-cyclopropoxy-N-[3,5-difluoro-4-({6-methoxy-7-[2-(methylamino)ethoxy]quinolin-4-yl}oxy)phenyl]pyrimidine-5-carboxamide] | 100 to 1000 | 100 to 1000
≤ 100 | ≤ 100 | CNCCOc1cc2nccc(Oc3ccc(NC(=O)c4cnccc4OC)c(F)c3F)c2cc1OC [Example 14, N-(2,3-difluoro-4-((6-methoxy-7-(2-(methylamino)ethoxy)quinolin-4-yl)oxy)phenyl)-4-methoxypyridine-3-carboxamide] | 100 to 1000 | 100 to 1000
≤ 100 | ≤ 100 | COc1cc2c(Oc3c(F)cc(NC(=O)c4cnccc4OC)cc3F)ccnc2cc1OC(F)(F)F [Example 37, N-(3,5-difluoro-4-((6-methoxy-7-(trifluoromethoxy)quinolin-4-yl)oxy)phenyl)-4-methoxypyridine-3-carboxamide] | 100 to 1000 | 100 to 1000
≤ 100 | ≤ 100 | CNCCOc1cc2nccc(Oc3c(F)cc(NC(=O)c4cc(F)c(F)cc4OC)cc3F)c2cc1OC [Example 2, N-(3,5-difluoro-4-((6-methoxy-7-(2-(methylamino)ethoxy)quinolin-4-yl)oxy)phenyl)-4,5-difluoro-2-methoxybenzamide] | 100 to 1000 | 1000 to 10000
≤ 100 | ≤ 100 | COc1cc2nccc(Oc3c(F)cc(NC(=O)c4cnccc4OCC(F)F)cc3F)c2cc1OCCO [Example 143, N-(3,5-difluoro-4-((6-(2-hydroxyethoxy)-7-methoxyquinolin-4-yl)oxy)phenyl)-4-(2,2-difluoroethoxy)pyridine-3-carboxamide] | ≤ 100 | ≤ 100
≤ 100 | ≤ 100 | CNCCOc1ccc2c(Oc3c(F)cc(NC(=O)c4ncccc4OC4CC4)cc3F)ccnc2c1 [Example 80, 3-cyclopropoxy-N-[3,5-difluoro-4-({7-[2-(methylamino)ethoxy]quinolin-4-yl}oxy)phenyl]pyridine-2-carboxamide] | ≤ 100 | 100 to 1000
≤ 100 | ≤ 100 | CNCCOc1cc2nccc(Oc3c(F)cc(NC(=O)c4cnccc4OC[C@H](C)O)cc3F)c2cc1OC [Example 64, (S)-N-(3,5-difluoro-4-((6-methoxy-7-(2-(methylamino)ethoxy)quinolin-4-yl)oxy)phenyl)-4-(2-hydroxypropoxy)pyridine-3-carboxamide] | 100 to 1000 | 100 to 1000
≤ 100 | ≤ 100 | CNCCOc1cc2nccc(Oc3ccc(NC(=O)c4c(OC)ccnc4F)c(F)c3F)c2cc1OC [Example 15, N-(2,3-difluoro-4-((6-methoxy-7-(2-(methylamino)ethoxy)quinolin-4-yl)oxy)phenyl)-2-fluoro-4-methoxypyridine-3-carboxamide] | 100 to 1000 | 100 to 1000
≤ 100 | ≤ 100 | COc1cc2nccc(Oc3c(F)cc(NC(=O)c4nnccc4OC4CC4)cc3F)c2cc1OC [Example 149, 4-cyclopropoxy-N-(4-((6,7-dimethoxyquinolin-4-yl)oxy)-3,5-difluorophenyl)pyridazine-3-carboxamide] | ≤ 100 | 100 to 1000
≤ 100 | ≤ 100 | CCOc1cc(N)ncc1C(=O)Nc1cc(F)c(Oc2ccnc3cc(OCCCN4CCOCC4)c(OC)cc23)cc1F [Example 32, 6-amino-N-[2,5-difluoro-4-({6-methoxy-7-[3-(morpholin-4-yl)propoxy]quinolin-4-yl}oxy)phenyl]-4-ethoxypyridine-3-carboxamide] | 100 to 1000 | 100 to 1000
≤ 100 | ≤ 100 | COc1cc2nccc(Oc3c(F)cc(NC(=O)c4ccncc4OC)cc3F)c2cc1O[C@@H](C)CO [Example 127, (S)-N-(3,5-difluoro-4-((6-((1-hydroxypropan-2-yl)oxy)-7-methoxyquinolin-4-yl)oxy)phenyl)-3-methoxyisonicotinamide] | ≤ 100 | ≤ 100
≤ 100 | ≤ 100 | CCCOc1ccncc1C(=O)Nc1cc(F)c(Oc2ccnc3cc(OCCNC)c(OC)cc23)cc1F [Example 52, N-(2,5-difluoro-4-((6-methoxy-7-(2-(methylamino)ethoxy)quinolin-4-yl)oxy)phenyl)-4-propoxypyridine-3-carboxamide] | 100 to 1000 | 100 to 1000
≤ 100 | ≤ 100 | COc1cc2nccc(Oc3c(F)cc(NC(=O)c4cnccc4OC4CC4)cc3F)c2cc1O[C@@H](C)CO [Example 129, (S)-4-cyclopropoxy-N-(3,5-difluoro-4-((6-((1-hydroxypropan-2-yl)oxy)-7-methoxyquinolin-4-yl)oxy)phenyl)nicotinamide] | ≤ 100 | ≤ 100

SMILES | IC50 (MET) [nM] | IC50 (MET D1228N) [nM] | EC50 [1] [nM] | EC50 (Ba/F3-TPR-MET cells) [nM]
CCCCOc1ccncc1C(=O)Nc1cc(F)c(Oc2ccnc3cc(OCCNC)c(OC)cc23)c(F)c1 [Example 69, 4-butoxy-N-[3,5-difluoro-4-({6-methoxy-7-[2-(methylamino)ethoxy]quinolin-4-yl}oxy)phenyl]pyridine-3-carboxamide] | ≤ 100 | ≤ 100 | ≤ 100 | ≤ 100
